The test system of this test is male cynomolgus monkeys. Description: Sleep-inducing test by cisternal administration. The class given is in vivo. The note with it: cisternal infusion; for Sleep time: sleep time over three hours after administration, four male cynomolgus monkeys; for Number of slept animals: three hours after administration. How it is done:
Sleep-Inducing Test by Cisternal Administration
Four male cynomolgus monkeys weighing 2.0-3.5 kg were individually placed in cages. The behaviors of the respective animals were recorded by videotape from one hour before drug administration to three hours after drug administration. Compound 16 was dissolved in physiological saline solution and sterilized using a Minipore filter. The drug was cisternally infused into the monkeys anesthetized with isoflurane inhalation. The dose was 10 μg/0.1 ml per monkey and 100 μg/0.1 ml per monkey. The same dose of the vehicle was infused cisternally to the control group. The test schedule was carried out according to the following protocol.
Week 1: Group treated with vehicle
Week 2: Group treated with 10 μg of Compound 16/monkey
Week 3: Group treated with 100 μg of Compound 16/monkey
The sleep times at three hours after administration were determined by playing back the recorded videotape and measuring the times (second) during which the animals relaxed with their both eyes closed, which are shown in Table 2.

`O=C(O)C#CCCSCC1C(Cl)CC(O)C1C#CC(O)C1CCCCC1` (stereo not drawn) [Compound 16, 9-Deoxy-9β-chloro-16,17,18,19,20-pentanor-15-cyclohexyl-2,2,3,3,13,14-hexadehydro-6-thia-PGF1α]: under “10 μg/0.1 ml per monkey”, the Sleep time was 293 s and the “Number of slept animals” value is 3/4. Besides, for the setting “100 μg/0.1 ml per monkey”, the Sleep time was 1734 s and the “Number of slept animals” value is recorded as 4/4.

Values taken from patent US7763652B2, “Prostaglandin derivatives” (Taisho Pharmaceutical Co., Ltd., priority 2002, dated 2010).
